What was measured:
[1] = tested on: HCV genotype 1a (HCV-1a) replicon cells; test: HCV genotype 1a replicon luciferase assay (EC50); assay type: cell-based, hepatitis C virus genotype 1a (H77 clone); details: 3 days, luciferase (Bright-Glo)
How it was run: (§1)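 Stable subgenomic replicon cells (1a: H77 with K1691R, K2040R, S2204I; 1b: Con1 with E1202G, T1280I, K1846T) carrying luciferase and neo were seeded at 8000 cells/well onto compounds (5-fold, 6-point, top 100, 10 or 1 nM; 0.5% DMSO) for 3 days at 37 °C. Bright-Glo luminescence gave EC50 by nonlinear fit.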

[2] = tested on: HCV genotype 1b (HCV-1b) replicon cells; test: HCV genotype 1b replicon luciferase assay (EC50); assay type: cell-based, hepatitis C virus genotype 1b (Con1 clone); details: 3 days, luciferase (Bright-Glo)
How it was run: as §1

[3] = Cell Titer-fluor cell activity assay in HCV-1b replicon cells (CC50); assay type: cell-based
How it was run: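 Con1 genotype 1b replicon cells (E1202G, T1280I, K1846T adaptive mutations), 8000 cells/well, exposed to 6-point 5-fold dilutions from 100, 10 or 1 nM top concentration in 0.5% DMSO, duplicate wells, 3 days at 37 °C. Viability read by Cell Titer-fluor (Ex 405/Em 515 nm) after 30 min; CC50 from nonlinear fit of inhibition %.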

Row | SMILES | EC50 ([1]; Hepatitis C virus, 72 h) [nM] | EC50 ([2]; Hepatitis C virus, 72 h) [nM] | CC50 at 3 days [3] [nM] | EC50 [1] [nM] | EC50 [2] [nM]
1 | COC(=O)N[C@H](C(=O)N1CCC[C@H]1c1ncc(-c2ccc(-c3ccc(-c4cnc([C@@H]5[C@H]6CC[C@H](C6)[C@H]5C(=O)NCc5cncnc5)[nH]4)cc3)cc2)[nH]1)C(C)C [AA_201_ENDOA2] | 0.101 to 1 | 0.001 to 0.1 | > 1 |  | 
2 | COC(=O)N[C@H](C(=O)N1CCC[C@H]1c1[nH]c(-c2ccc(-c3ccc(-c4cnc([C@@H]5CCCN5C(=O)[C@@H](NC(=O)OC)[C@@H](C)O)[nH]4)cc3)cc2)c2c1COC2)C(C)C [AG_104] | 0.001 to 0.1 | 0.001 to 0.1 | > 1 |  | 
3 | COC(=O)N[C@H](C(=O)N1CCC[C@@H]1c1ccc(-c2ccc(-c3ccc(-c4cnc([C@@H]5CCCN5C(=O)[C@@H](NC(=O)OC)[C@@H](C)OC)[nH]4)cc3)cc2)[nH]1)C(C)C [AG_061_B] | 0.101 to 1 | 0.001 to 0.1 | > 10 |  | 
4 | COC(=O)NC(C(=O)N1CCC[C@H]1c1nc2ccc(-c3ccc(-c4[nH]c([C@@H]5CCCN5C(=O)[C@@H](NC(=O)OC)C(C)OC)c5c4CCC5)cc3)cc2[nH]1)[C@@H](C)OC (stereo partly drawn) [AG_092] | 10 to 100 | 0.001 to 0.1 | > 1 |  | 
5 | COC(=O)N[C@H](C(=O)N1CCC[C@H]1c1ncc(-c2ccc(-c3ccc(-c4cnc(C5C6CCC(C6)[C@@H]5C(=O)NCc5ccncc5)[nH]4)cc3)cc2)[nH]1)[C@@H](C)OC (stereo partly drawn) [AA_248_B] | 10 to 100 | 0.101 to 1 | > 1 |  | 
6 | COC(=O)N[C@H](C(=O)N1CCC[C@H]1c1ncc(-c2ccc(-c3ccc(-c4cnc([C@H]5C6CCC(C6)[C@@H]5C(=O)NC(C)c5cccnc5)[nH]4)cc3)cc2)[nH]1)C(C)C (single isomer, unassigned) [AA_204_A] |  | 0.001 to 0.1 | > 1 | 0.101 to 1 | 
7 | COC(=O)N[C@H](C(=O)N1CCC[C@H]1c1ncc(-c2ccc(-c3ccc(-c4cnc([C@H]5C6CCC(C6)[C@@H]5C(=O)NCc5cccnc5C(C)C)[nH]4)cc3)cc2)[nH]1)C(C)C (stereo partly drawn) [AA_215_A] | 10 to 100 | 0.001 to 0.1 | > 1 |  | 
8 | COC(=O)N[C@H](C(=O)N1CCC[C@H]1c1[nH]c(-c2ccc(-c3ccc(-c4cnc(C5C6CCC(C6)[C@@H]5C(=O)N(NC(=O)OC)C(C)C)[nH]4)cc3)cc2)c2c1CCC2)C(C)C (stereo partly drawn) [AA_155] | 10 to 100 | 1 to 10 | > 100 |  | 
9 | COC(=O)N[C@H](C(=O)N1CCC[C@H]1c1ncc(-c2ccc(-c3ccc(-c4cnc([C@H]5C6CCC(C6)[C@@H]5C(=O)NCc5ccc(OC)nc5)[nH]4)cc3)cc2)[nH]1)C(C)C (stereo partly drawn) [AA_200_A] | 1 to 10 | 0.001 to 0.1 | > 1 |  | 
10 | COC(=O)N[C@H](C(=O)N1CCC[C@H]1c1ncc(-c2ccc(-c3ccc(-c4cnc(C5C6CCC(C6)[C@@H]5C(=O)N[C@H](C)c5cccnc5)[nH]4)cc3)cc2)[nH]1)[C@@H](C)OC (single isomer, unassigned) [AA_253_A] | 10 to 100 |  | > 1 |  | 0.101 to 1
11 | COC(=O)N[C@H](C(=O)N1CCC[C@H]1c1ncc(-c2ccc(-c3ccc(-c4cnc(C5CC6(C[C@@H]5C(=O)N(NC(=O)OC)C(C)C)OCCO6)[nH]4)cc3)cc2)[nH]1)C(C)C (stereo partly drawn) [AA_160] | 1 to 10 | 0.001 to 0.1 | > 50 |  | 
12 | COC(=O)N[C@H](C(=O)N1CCC[C@H]1c1ncc(-c2ccc(-c3ccc(-c4cnc(C5[C@H]6CC[C@H](C6)[C@H]5C(=O)N[C@@H](c5cccnc5)C(C)C)[nH]4)cc3)cc2)[nH]1)C(C)C (stereo partly drawn) [AA_233_ENDOA2_B] | 10 to 100 | 0.001 to 0.1 | > 1 |  | 
13 | COC(=O)N[C@H](C(=O)N1CCC[C@H]1c1ncc(-c2ccc(-c3ccc(-c4cnc(C5C6CCC(C6)[C@H]5C(=O)N(NC(=O)OC)C(C)C)[nH]4)cc3)c(OC)c2)[nH]1)C(C)C (stereo partly drawn) [AA_190_B] | 10 to 100 | 0.101 to 1 | > 1 |  | 
14 | COC(=O)N[C@H](C(=O)N1CCC[C@H]1c1ncc(-c2ccc(-c3ccc(-c4cnc([C@H]5C6CCC(C6)[C@@H]5C(=O)NC(c5cccnc5)C(C)C)[nH]4)cc3)cc2)[nH]1)C(C)C (single isomer, unassigned) [AA_233_A] |  |  | > 1 | 0.101 to 1 | 0.001 to 0.1
15 | COC(=O)N[C@H](C(=O)N1CCC[C@H]1c1ncc(-c2ccc(-c3ccc(-c4cnc([C@@H]5C6CCC(C6)[C@H]5C(=O)NCCc5ccncc5)[nH]4)cc3)cc2)[nH]1)C(C)C (stereo partly drawn) [AA_209_B] | 10 to 100 | 0.101 to 1 | > 1 |  | 
16 | COC(=O)N[C@H](C(=O)N1CCC[C@H]1c1ncc(-c2ccc(-c3ccc(-c4cnc(C5C6CCC(C6)[C@@H]5C(=O)NC(C)c5cnccn5)[nH]4)cc3)cc2)[nH]1)[C@@H](C)OC (single isomer, unassigned) [AA_281_A] |  |  | > 1 | 0.101 to 1 | 0.001 to 0.1
17 | COC(=O)N[C@H](C(=O)N1CCC[C@H]1c1ncc(-c2ccc3c(c2)C(F)(F)c2cc(-c4cnc(C5C6CCC(C6)[C@H]5C(=O)NCc5cccnc5)[nH]4)ccc2-3)[nH]1)C(C)C (stereo partly drawn) [AA_238] | 1 to 10 | 0.001 to 0.1 | > 1 |  | 
18 | COC(=O)N[C@H](C(=O)N1CCC[C@H]1c1ncc(-c2ccc(-c3ccc(-c4cnc([C@@H]5[C@H]6CC[C@H](C6)[C@H]5C(=O)N[C@@H](C)c5cnccn5)[nH]4)cc3)cc2)[nH]1)C(C)C [AA_270_ENDOA2_A] | 0.001 to 0.1 | 0.001 to 0.1 | > 1 |  | 
19 | COC(=O)N[C@H](C(=O)N1CCC[C@H]1c1ncc(-c2ccc(-c3ccc(-c4[nH]c([C@@H]5CCCN5C(=O)[C@@H](NC(=O)OC)[C@@H](C)OC)c5c4COC5)cc3)cc2)[nH]1)C(C)C [AG_079_A] | 0.001 to 0.1 | 0.001 to 0.1 | > 5 |  | 
20 | COC(=O)N[C@H](C(=O)N1CCC[C@H]1c1ncc(-c2ccc(-c3ccc(-c4ccc([C@H]5CCCN5C(=O)N(NC(=O)OC)C(C)C)[nH]4)cc3)cc2)[nH]1)C(C)C [AG_081_B] | 10 to 100 | 0.001 to 0.1 | > 1 |  | 
21 | COC(=O)N[C@H](C(=O)N1CCC[C@H]1c1ncc(-c2ccc(-c3ccc(-c4cnc(C5CCCC[C@H]5C(=O)NCc5cccnc5)[nH]4)cc3)cc2)[nH]1)C(C)C (stereo partly drawn) [AA_113] | 1 to 10 | 0.101 to 1 | > 10 |  | 
22 | COC(=O)N[C@H](C(=O)N1CCC[C@H]1c1ncc(-c2ccc(-c3ccc(-c4cnc(C5C6CCC(C6)[C@@H]5C(=O)NCc5cccnc5)[nH]4)cc3)cc2)[nH]1)C(C)C (stereo partly drawn) [AA_162_B] | 1 to 10 | 0.001 to 0.1 | > 1 |  | 
23 | COC(=O)N[C@H](C(=O)N1CCC[C@H]1c1ncc(-c2ccc(-c3ccc(-c4[nH]c([C@@H]5CCCN5C(=O)[C@@H](NC(=O)OC)C(C)C)c5c4OCC5)cc3)cc2)[nH]1)C(C)C [AG_122_A] |  |  | > 1 | 1 to 10 | 0.001 to 0.1
24 | COC(=O)N[C@H](C(=O)N1CCC[C@H]1c1ncc(-c2ccc(-c3ccc(-c4cnc([C@H]5C6CCC(C6)C5C(=O)NCc5cccnc5)[nH]4)cc3)nc2)[nH]1)[C@@H](C)OC (stereo partly drawn) [AA_242_A] | 10 to 100 | 0.101 to 1 | > 1 |  | 
25 | COC(=O)N[C@H](C(=O)N1CCC[C@H]1c1ncc(-c2ccc(-c3ccc(-c4cnc([C@H]5C6CCC(C6)[C@@H]5C(=O)NCc5cncc(C(C)C)c5)[nH]4)cc3)cc2)[nH]1)C(C)C (stereo partly drawn) [AA_235_A] | 10 to 100 | 0.001 to 0.1 | > 1 |  | 
26 | COC(=O)N[C@H](C(=O)N1CCC[C@H]1c1ncc(-c2ccc(-c3ccc(-c4cnc([C@@H]5C6CCC(C6)[C@H]5C(=O)NCc5cncnc5)[nH]4)cc3)cc2)[nH]1)C(C)C (stereo partly drawn) [AA_201_B] | 1 to 10 | 0.001 to 0.1 | > 1 |  | 
27 | COC(=O)N[C@H](C(=O)N1CCC[C@H]1c1ccc(-c2ccc(-c3ccc(-c4cnc([C@@H]5CCCN5C(=O)[C@@H](NC(=O)OC)[C@@H](C)OC)[nH]4)cc3)cc2)[nH]1)[C@@H](C)OC [AG_118_B] | 1 to 10 | 0.001 to 0.1 | > 1 |  | 
28 | COC(=O)N[C@H](C(=O)N1CC2(CC2)C[C@H]1c1ncc(-c2ccc(-c3ccc(-c4[nH]c([C@@H]5CCCN5C(=O)[C@@H](NC(=O)OC)[C@@H](C)OC)c5c4COC5)cc3)cc2)[nH]1)C(C)C [AG_117] | 0.101 to 1 | 0.001 to 0.1 | > 1 |  | 

From patent publication US10160771B2, “Hepatitis C virus inhibitors and uses thereof in preparation of drugs” (priority 2014, dated 2018)
